# From patent publication US5885994A, “Tetrahydroquinoxaline dopamine D4 receptor antagonists” (Warner-Lambert Company, priority 1998, dated 1999)
# Test system: apomorphine-induced disruption of prepulse inhibition
# Assay: Prepulse inhibition of acoustic startle model in rats
# Assay type: in vivo
# Conditions: rat, 30 mg/kg IP
# From the text: PROTOCOL FOR THE PREPULSE INHIBITION OF ACOUSTIC STARTLE MODEL IN RATS
# Prepulse inhibition (PPI) of acoustic startle is a form of sensorimotor gating which occurs when a weak stimulus precedes a startling stimulus, resulting in diminution of the startle response amplitude. […] Thus, an animal model utilizing this phenomenon would be quite useful in the study of known and potential antipsychotic agents.
# This indicates a possible role of DA D2-like receptor stimulation in reducing sensorimotor gating in the rat.
# Male Sprague-Dawley rats from Harlan Labs (180-280 g) were housed in groups of five rats per cage and maintained on a 12-hour light/dark cycle with free access to food pellets and water. […]
# Eight startle chambers (SR-LAB, San Diego Instruments) were used, each consisting of a Plexiglas cylinder resting on a Plexiglas frame within a ventilated sound-attenuating enclosure. […] The average responses during the 100 msec record window (100×1 msec readings) were recorded by microcomputer and interface assembly (San Diego Instruments). […] Sound levels were assessed with a Radio Shack dB meter. […]
# The test session in all experiments consisted of a total of 90 trials after a 5-minute test acclimation period of 70 dB white noise. […] When the prepulse was paired with the 120 dB pulse, no obvious acoustic difference could be detected by the human ear as compared to the 120 dB pulse alone. […]
structure (smiles),measurement,value
"Cc1ccc(N2CCN(Cc3ccc4c(c3)NCCN4)CC2)cc1C [Example 2, 6-[4-(3,4-Dimethylphenyl)piperazin-1-ylmethyl]-1,2,3,4-tetrahydroquinoxaline]",blockade of apomorphine-induced disruption of prepulse inhibition in the Acoustic Startle test,significant blockade
